Test results as given in patent publication US8940716B2, “Bicyclic heteroaryl compounds as GPR119 modulators” (Bristol-Myers Squibb Company, priority 2010, dated 2015).

What was measured:
[1] = test system: plasma glucose in male C57BL/6J mice; test: Mouse oral glucose tolerance test; format: in vivo
Protocol: Twenty four (24) male C57BL/6J mice (8-10 weeks old, average weight 28 g) were randomized into 4 groups (1 mouse/cage) of 6 mice per group based on fed plasma glucose and body weight. Prior to initiating the study, mice were fasted overnight and the next morning they were weighed and placed in the experimental lab. After 30 min in the environment, the mice were bled via tail tip at −60 min and immediately given their first oral administration of vehicle (40% PEG400, 10% Cremophor EL, 50% water) or compound solutions (5 ml/kg). At time 0 the mice were bled and given 50% glucose (2 g/kg) to initiate the oral glucose tolerance test (oGTT). The mice were bled 30, 60 and 120 min after the glucose load. Blood samples were drawn into potassium EDTA, placed on ice during the study and subsequently centrifuged for 10 min at 3000 rpm at 4° C. Plasma samples were diluted 11-fold for glucose analysis in the COBAS MIRA® System (Roche Diagnostics). Area under the curve was calculated from the plasma glucose time course data using the trapezoid rule with fasting plasma glucose as the baseline (GraphPad Prism Software). The statistical significance of the changes in the glucose AUCs resulting from the different treatments was determined by one-way ANOVA followed by Dunnett's test using the vehicle group as the control (JMP software, release 5.1.2). […]

[2] = biological target: T1, human-mouse chimeric GPR119 (Homo sapiens, UniProt Q8TDV5, A235T/C313R/C323Y/E253K/F304I/F307L/G211A/G245S/H255C/K284R/L224V/L258Q/L288Q/L301F/P218V/P318T/Q252H/R262K/S214P/S219N/S228A/S309P/S322A/T217S/T239S/V227I/V300F); test: Tet-inducible cAMP assay; format: cell-based; settings: cAMP accumulation (HTRF), Flp-In-T-Rex-HEK293 cells expressing chimeric human/mouse GPR119, 50 min incubation; read-out: GPR119 EC50
T1 construct: the first 198 amino acids of human GPR119; the C-terminal 137 amino acids of the mouse receptor; expressed in transfected cells
T1 sequence (Q8TDV5 with tags, fused parts or gaps G211A/S214P/T217S/P218V/S219N/L224V/V227I/S228A/A235T/T239S/G245S/Q252H/E253K/H255C/L258Q/R262K/K284R/L288Q/V300F/L301F/F304I/F307L/S309P/C313R/P318T/S322A/C323Y): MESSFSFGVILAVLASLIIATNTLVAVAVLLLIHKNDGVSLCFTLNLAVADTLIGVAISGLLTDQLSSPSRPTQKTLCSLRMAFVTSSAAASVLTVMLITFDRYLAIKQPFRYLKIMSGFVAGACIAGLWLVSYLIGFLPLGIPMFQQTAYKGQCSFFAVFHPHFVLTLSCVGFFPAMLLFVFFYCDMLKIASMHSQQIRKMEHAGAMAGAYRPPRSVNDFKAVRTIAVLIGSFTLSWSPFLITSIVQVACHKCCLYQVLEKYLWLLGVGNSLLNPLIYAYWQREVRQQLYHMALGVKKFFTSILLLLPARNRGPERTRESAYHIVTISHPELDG
Protocol: The in vitro modulation of recombinant human GPR119 was determined as follows.
A human-mouse chimeric GPR119 expression construct encoding 3 copies of the FLAG epitope tag, the first 198 amino acids of human GPR119 and the C-terminal 137 amino acids of the mouse receptor was cloned into a tetracycline inducible vector pcDNA5/FRT/TO (Invitrogen #V6520-20), which includes a hygromycin-resistance marker. Tightly controlled receptor expression was achieved by stable integration of this construct into the genome of a specific host cell line, Flp-In-T-Rex-HEK293, expressing the tetracycline repressor (Invitrogen). Once a stable hygromycin-resistant cell line was generated, the cells were maintained at 37° C. in a humidified 5% CO2 atmosphere in culture medium consisting of Dulbecco's modified Eagle's medium (DMEM; Invitrogen #11960) supplemented with 2 mM L-glutamine, 10% fetal bovine serum, 200 μg/ml hygromycin B, and 15 μg/ml blasticidin.
Forty-eight hours prior to the cAMP accumulation assay, cells stably expressing the chimeric human/mouse GPR119 construct were seeded at a density of 4×10^3 cells/well in 384 well poly-D-lysine coated solid white plates (BD #35-6661) and grown at 37° C. in a humidified 5% CO2 atmosphere in culture medium supplemented with 1 μg/ml tetracycline to induce expression of the receptor. On the day of the assay, medium was removed and cells were incubated for 50 min. at 37° C. in a humidified 5% CO2 atmosphere in 20 μl/well of assay buffer (phosphate-buffered saline with Ca^2+ and Mg^2+, 12 mM glucose, 0.1 mM isobutyl-methyl-xanthine, 0.1% fatty-acid free bovine serum albumin) with the desired concentration of compound added from a concentrated stock dissolved in dimethyl sulfoxide (DMSO) to give a final concentration of 1% DMSO in the assay. cAMP accumulation was measured using the CisBio homogeneous time resolved fluorescence (HTRF) assay kit (#62AM2PEC) following the manufacturer's protocol. Briefly, 10 μl each of the cAMP-HTRF fluorescence detection reagents were added to each well, and the samples were incubated for 40 min. at room temperature. Fluorescence was excited at 320 nm and measured at 665 and 620 nm using the Envision instrument (Perkin Elmer), the fluorescence ratio of 665/620 was calculated and converted to nanomolar concentrations of cAMP in each well by interpolation from a cAMP standard curve. The concentration-response curves and EC50 values were calculated with a four parameter logistic curve fit equation utilizing Excel/XLfit software (Microsoft and IDBS). The EC50 value was calculated as the concentration of agonist which increased the cAMP concentration to a value halfway between the baseline and the maximum.
Compounds of the present invention were tested in the Tet-inducible cAMP assay described immediately above and the results shown in Table 2 below were obtained.

| Compound | EC50 [2] | Glucose Lowering (%) ([1]; change in plasma glucose AUC vs vehicle at the minimally efficacious dose, oGTT, oral) | Minimally efficacious Dose ([1]; oral administration 60 min before glucose load (2 g/kg), fasted male C57BL/6J mice) |
| --- | --- | --- | --- |
| CCCc1cnc(N2CCC(Oc3nc4ccc(C5=CCN(S(=O)(=O)CCC)CC5)cc4s3)CC2)nc1 [Example 1, 2-(1-(5-Propylpyrimidin-2-yl)piperidin-4-yloxy)-6-(1-(propylsulfonyl)-1,2,3,6-tetrahydropyridin-4-yl)benzo[d]thiazole] |  | −39% | 10 mg/kg |
| CC(C)(O)CCS(=O)(=O)N1CCC(c2ccc3nc(OC4CCN(c5ncc(Cl)cn5)CC4)sc3c2)CC1 [Example 246] | 3.9 nM |  |  |
| CCCc1cnc(N2C[C@@H]3[C@@H](COc4nc5ccc(-c6ccc(S(C)(=O)=O)cc6)cc5s4)[C@@H]3C2)nc1 [Example 266] | 1080 nM |  |  |

Further lines, with some results ahead:

| EC50 [2] | Compound | Glucose Lowering (%) ([1]; change in plasma glucose AUC vs vehicle at the minimally efficacious dose, oGTT, oral) | Minimally efficacious Dose ([1]; oral administration 60 min before glucose load (2 g/kg), fasted male C57BL/6J mice) |
| --- | --- | --- | --- |
| 20.4 nM | Cc1nnc(N2CCC(Oc3nc4ccc(-c5ccc(S(C)(=O)=O)cc5)cc4s3)CC2)s1 [Example 294] |  |  |
| 46.1 nM | Cc1cc(C)nc(N2CCC(Oc3nc4ccc(-c5ccc(S(C)(=O)=O)cc5)cc4s3)CC2)n1 [Example 296] |  |  |
| 345 nM | CC(C)OC(=O)N1CCC(Oc2nc3ccc(C4=CCN(C(=O)OC(C)(C)C)CC4)cc3s2)CC1 [Example 301] |  |  |
